Laboratory results reported in ChEMBL document CHEMBL3352618, “Discovery of novel pyrimidine and malonamide derivatives as TGR5 agonists” (Bioorg Med Chem Lett, 2014).

Legend:
Format in all cases: ADME, organism-based
[1] = AUC (0 to 7 hrs) in male ICR mouse at 5 mg/kg, iv; set-up: time < 7 hr, dose 5 mg/kg, route intravenous; conditions: plasma
[2] = test system: Mus musculus; test: Mean residence time (last) in male ICR mouse at 5 mg/kg, iv; set-up: dose 5 mg/kg, route intravenous; conditions: in vivo
[3] = Oral bioavailability in male ICR mouse at 10 mg/kg; conditions: in vivo
[4] = Mean residence time (last) in male ICR mouse at 10 mg/kg, po; set-up: dose 10 mg/kg, route oral; conditions: in vivo
[5] = test system: Mus musculus; test: Clearance in male ICR mouse at 5 mg/kg, iv; set-up: dose 5 mg/kg, route intravenous; conditions: in vivo
[6] = Tmax in male ICR mouse at 10 mg/kg, po; set-up: dose 10 mg/kg, route oral; conditions: in vivo
[7] = Clearance in male ICR mouse at 10 mg/kg, po; set-up: dose 10 mg/kg, route oral; conditions: in vivo
[8] = test system: Mus musculus; test: Volume of distribution at steady state in male ICR mouse at 5 mg/kg, iv; set-up: dose 5 mg/kg, route intravenous; conditions: in vivo
[9] = AUC (0 to 7 hrs) in male ICR mouse at 10 mg/kg, po; set-up: time < 7 hr, dose 10 mg/kg, route oral; conditions: plasma
[10] = test system: Mus musculus; test: Volume of distribution at steady state in male ICR mouse at 10 mg/kg, po; set-up: dose 10 mg/kg, route oral; conditions: in vivo
[11] = Cmax in male ICR mouse at 10 mg/kg, po; set-up: dose 10 mg/kg, route oral; conditions: in vivo
[12] = Half life in male ICR mouse at 5 mg/kg, iv; set-up: dose 5 mg/kg, route intravenous; conditions: in vivo
[13] = Half life in male ICR mouse at 10 mg/kg, po; set-up: dose 10 mg/kg, route oral; conditions: in vivo

CN1CCN(C(=O)c2cnc(O)nc2Oc2cc(Cl)ccc2Cl)c2ccccc21
AUC(0-t) at 7 h [1]: 1430 ng·h/mL
MRT [2]: 0.2 h
bioavailability [3]: 13.9%
MRT last [4]: 1.97 h
CL [5]: 58.2 mL/min/kg
Tmax [6]: 1 h
CL/F [7]: 369 mL/min/kg
Vdss [8]: 7.31 L/kg
AUC(0-t) at 7 h [9]: 397 ng·h/mL
Vdss [10]: 90.5 L/kg
Cmax [11]: 236 ng/mL
half-life [12]: 1.45 h
half-life [13]: 2.83 h
